Values quoted from earlier work, collected in patent publication US20260295054A1, “GLUCAGON-LIKE PEPTIDE-1 RECEPTOR AGONIST VARIANTS AND METHODS THEREOF” (Neuraly, Inc., priority 2023, published 2026).
Read-outs that look alike come from different tables or passages of the source.

What was measured:
type 2 diabetic subjects = settings: for HbA1c reduction from baseline: week 16
[1] = humans

albiglutide
HbA1c reduction from baseline (type 2 diabetic subjects; 30 mg weekly): 0.87%
HbA1c reduction from baseline (type 2 diabetic subjects; 50 mg biweekly): 0.79%
HbA1c reduction from baseline (type 2 diabetic subjects; 100 mg monthly): 0.87%
albiglutide concentrations between monthly doses (type 2 diabetic subjects; monthly dosing): fall essentially to zero between monthly doses
fasting blood glucose control (type 2 diabetic subjects; monthly dosing): substantial loss in fasting blood glucose control
nausea and vomiting on dosing days (type 2 diabetic subjects; monthly vs weekly dosing): significantly greater incidence of nausea and vomiting
serum half-life [1]: ~ 5 days
